Measurements reported in patent publication US11740235B2, “Model-membrane-based lipid transfer assays and methods” (Regents of the University of Minnesota, priority 2019, dated 2023).
“Also recorded” adds a separate entry of the source.

Key:
Type in all cases: biochemical
GLTP [1] = target: T1, GLTP (Homo sapiens, UniProt Q9NZD2); experiment: FRET lipid transfer control with DHPC in assay buffer, ethanol-injection donors and sonicated acceptors; settings: DHPC 352 μM and 672 μM in assay buffer; ethanol-injection donors, sonicated acceptors (5×)
T1 construct: 6xHis-SUMO (N, cleaved yes); made in house; host or cells: E. coli BL21 (DE3)-pLysS or -Star
T1 sequence (Q9NZD2 1-209): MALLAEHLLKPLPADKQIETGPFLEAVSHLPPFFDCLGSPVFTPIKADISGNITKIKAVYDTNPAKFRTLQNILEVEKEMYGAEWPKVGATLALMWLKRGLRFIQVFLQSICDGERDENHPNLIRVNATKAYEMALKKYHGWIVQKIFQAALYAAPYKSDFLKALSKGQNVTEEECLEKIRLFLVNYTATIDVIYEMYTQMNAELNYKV
Experimental: Small phosphatidylcholine vesicles (25-40 nm diameters) have typically been used as model membranes to assess lipid inter-bilayer transfer because of the faster transfer rates compared to those obtained using larger vesicles. Different donor and acceptor combinations were tested involving either small vesicles and/or 0.5 q-value bicelle dilution vesicles (bd-vesicles) to determine which combination produced the fastest intermembrane transfer rates. […] When the donor vesicles were produced by sonication, sphingolipid transfer rates were markedly slowed regardless of whether the acceptors were bd-vesicles or sonicated vesicles. […] Thus, similar high assay sensitivity can be achieved using the bicelle-to-bicelle transfer conditions as for vesicle-to-vesicle transfer conditions. […]
(§1) Real-time intermembrane transfer rates of fluorescent sphingolipids were obtained by Förster resonance energy transfer (FRET) using a SPEX FluoroLog3 spectrofluorometer (Horiba Scientific, Ltd., Kyoto, Japan), with excitation and emission band passes of 2 nm and a stirred (˜100 rpm), temperature-controlled (25±0.1° C.) sample cuvette holder. […] Either sonicated POPC vesicles or b-d POPC/DHPC model membranes served as receiver (acceptor) model membranes, which produced minimal change in fluorescence signal when added in excess (Mattjus et al., 1999, Anal. Biochem. 268:297-304). […]

GFP-CPTP = experiment: Bicelle-dilution FRET lipid transfer assay with HeLa cell lysate; settings: lysate of transfected HeLa cells, 10 μl aliquots; donor q=0.5, acceptor q=0.5
Experimental: (§2) FIG. 14. Bicelle-dilution-model-membrane-assay detection of transfer activity by GLTP and CPTP expressed in HeLa cells after transient transfection with GFP-GLTP or GFP-CPTP. Cells were disrupted by brief probe sonication (30 sec×2) on ice. Cell supernatants were recovered by benchtop centrifugation (5 min @ 12,000 rpm) at 4° C. and then 10 μl aliquots were assayed for LTP activity. (Donor: q=0.5; Acceptor: q=0.5).
(§3) HeLa cells were plated on 100-mm dishes and transfected with different vectors using Lipofectamine 2000 (Invitrogen, Carlsbad, Calif.). At 24 hours post-transfection, cells were harvested by trypsinization, washed with phosphate-buffered saline (PBS) by benchtop centrifugation and then suspended in PBS buffer (200 μl). Disruption of the HeLa cells was accomplished by brief probe sonication (2×30 seconds) on ice. Cell supernatants were recovered by benchtop centrifugation (5 minutes at 12,000 rpm) at 4° C. and 10 μl aliquots were assayed for SLTP activity using donor bicelle-dilution vesicles containing either Me4-BODIPY-GalCer or Me4-BODIPY-C1P along with C18-DiI.

GFP-GLTP = experiment: as above; settings: lysate of transfected HeLa cells, 10 μl aliquots; donor q=0.5, acceptor q=0.5
Experimental: as §2, §3

GLTP [2] = target: T1, GLTP; experiment: Bicelle-dilution FRET lipid transfer assay, lipid specificity; settings: for transfer by GLTP between bd donors and acceptors: donor q=0.5, acceptor q=0.5
Experimental: (§4) For experiments requiring ˜10 kinetic assays, donor stock lipid mixtures (0.5 q-value) were prepared by combining POPC (0.39 μmol), BODIPY-15-SL (0.004 μmol), DiI-C18 (0.006 μmol) and DHPC (0.8 μmol) from stock solvent solutions of hexane/ethanol (9:1) or chloroform/methanol (8:2). Acceptor stock lipid mixtures (0.5 q-value) were prepared by combining POPC (2 μmol) and DHPC (4 μmol) from stock solvent solutions. Total solvent volume in the clean glass vials containing inverted conical bottoms was approximately 100 μl. For other q-value stocks, the amount of DHPC was adjusted accordingly. Dry films of the lipid mixtures were obtained using a stream of nitrogen to evaporate all solvent at room temperature. The dry lipid films were hydrated by adding 200 μl of assay buffer (10 mM potassium phosphate, pH 6.6, 150 mM NaCl, and 0.2% EDTA) and then vortexed vigorously for at least five minutes to achieve optical clarity. For stocks with q-values of 1 or 2, lipid mixtures were not only vortexed vigorously but also sonicated briefly (2 to 3 minutes). All stocks were equilibrated overnight at room temperature prior to use in the lipid transfer assay regardless of q-value [q-value for donors=(POPC+BODIPY-15-SL+DiIC18)/DHPC; q-value for acceptors=POPC/DHPC]. Immediately prior to use in the FRET lipid transfer assay, donor and acceptor stocks were centrifuged for 10 minutes at 13,000 rpm. The FRET lipid transfer assay as performed as follows: donor stock (20 μl) was diluted into a stirred temperature-controlled cuvette containing assay buffer an equilibrated for two minutes to ensure a stable signal response. Next, acceptor stock (20 μl was diluted into the stirred cuvette and equilibrated for four minutes prior to initiating sphingolipid transfer by adding lipid transfer protein (2 μg) to a final cuvette volume of 2.5 ml. The total lipid concentration was 288 μM for assays using a 5:1 acceptor-to-donor ratio and was higher when more acceptors were added to increase transfer equilibrium from the donors.
(§5) Real-time intermembrane transfer rates of fluorescent sphingolipids were obtained by Förster resonance energy transfer (FRET) using a SPEX FluoroLog3 spectrofluorometer (Horiba Scientific, Ltd., Kyoto, Japan), with excitation and emission band passes of 2 nm and a stirred (˜100 rpm), temperature-controlled (25±0.1° C.) sample cuvette holder. All fluorescent lipids were localized initially to the SL-source (donor) vesicles (formed by rapid ethanol injection or probe sonication) or SL-source (donor) b-d model membranes. Minimal BODIPY-lipid emission occurred upon excitation (460 nm) due to resonance energy transfer to nearby C18-DiI. Either sonicated POPC vesicles or b-d POPC/DHPC model membranes served as receiver (acceptor) model membranes, which produced minimal change in fluorescence signal when added in excess (Mattjus et al., 1999, Anal. Biochem. 268:297-304). The final receiver (acceptor) vesicle concentration in the FRET lipid transfer assay was ˜240 μM to 1440 μM, which was five-fold to 30-fold higher than the SL-source (donor) vesicle concentration. Protein addition triggered a sudden, hyperbolic increase in BODIPY emission intensity (503 nm) as FRET decreased due to protein transport of fluorescent glycolipids from SL-source (donor) vesicles to receiver (acceptor) vesicles, creating separation from nontransferable C18-DiI lipid, as the protein delivers the BODIPY-SL to the excess POPC receiver vesicles or POPC/DHPC bicelles. Addition of Tween-20 detergent after extended incubation provided a measure of maximum intensity achievable by “infinite” fluorophore separation.

ACD11 [3] = target: T2, ACD11 (Arabidopsis thaliana, UniProt O64587); experiment: as above; settings: donor q=0.5, acceptor q=0.5
T2 construct: 6xHis-SUMO (N, cleaved yes); made in house; host or cells: E. coli BL21 (DE3)-pLysS or -Star
T2 sequence (O64587 1-206): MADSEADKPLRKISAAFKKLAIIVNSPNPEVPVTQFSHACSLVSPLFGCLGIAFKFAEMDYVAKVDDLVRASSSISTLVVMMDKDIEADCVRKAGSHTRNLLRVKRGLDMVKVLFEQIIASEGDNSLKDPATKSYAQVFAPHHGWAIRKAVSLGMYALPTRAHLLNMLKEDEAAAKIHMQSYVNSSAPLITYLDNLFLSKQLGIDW
Experimental: as §4, §5

ACD11 [4] = target: T2, ACD11; experiment: Bicelle-dilution FRET assay, competitive inhibition of BODIPY-C1P transfer; settings: increasing concentrations in donor bd-vesicles; donor q=0.5, acceptor q=0.5
Source text: The C1P derivative, diethyl-C1P, can inhibit cytosolic phospholipase A2α (cPLA2α) activity when the C1P acyl chain is short—e.g., C2-diethyl-C1P. The inhibition of cPLA2α by C2-diethyl-C1P presumably occurs via interaction with the cPLA2α C2-domain, which contains a C1P binding site that activates cPLA2α by enhancing translocation to membranes. To date, no inhibitors of C1P transfer proteins (e.g., CPTP and ACD11) have been reported. The bicelle-dilution FRET assay was used to test whether C2-diethyl-C1P can inhibit the plant CPTP ortholog, ACD11. […]
as §1

GFP-CPTP, sequence (Q5TA50 whole entry): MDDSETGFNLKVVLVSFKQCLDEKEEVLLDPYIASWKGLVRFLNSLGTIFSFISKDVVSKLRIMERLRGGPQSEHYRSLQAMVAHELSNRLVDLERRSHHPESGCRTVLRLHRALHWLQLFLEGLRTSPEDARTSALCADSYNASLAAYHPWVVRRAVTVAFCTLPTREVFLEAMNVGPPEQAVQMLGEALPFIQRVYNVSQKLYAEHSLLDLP

Row | Compound | bd-vesicle-to-bd-vesicle transfer by GFP-GLTP (GFP-GLTP) | transfer by GLTP between bd donors and acceptors (GLTP [2]) | transfer by ACD11 between bd donors and acceptors (ACD11 [3]) | also measured
1 | CCCCCC(=O)OC[C@H](COP(=O)([O-])OCC[N+](C)(C)C)OC(=O)CCCCC [DHPC, 1,2-hexanoyl-sn-glycero-3-phosphocholine] | – | – | – | effect on GLTP transfer rate of Me4-BODIPY-GalCer (GLTP [1]): Lack of significant effect; also recorded: Minimal affect
2 | Me4-BODIPY-15-ceramide-1-phosphate [Me4-BODIPY C1P] | not | not | specifically transfers | bd-vesicle-to-bd-vesicle transfer by GFP-CPTP (GFP-CPTP): transfer; transfer by ACD11 between bd donors and acceptors (ACD11 [3]; listed as BODIPY-C1P): transfer
3 | Me4-BODIPY-15-galactosylceramide [Me4-BODIPY GalCer] | transfer | is detected | not | transfer equilibrium by GLTP (GLTP [2]; bicelle-dilution vesicles, 100% estimated by Tween-20 solubilization): ~70%; transfer by GLTP between bd donors and acceptors (GLTP [2]; listed as BODIPY-GalCer): transfer
4 | ceramide-1-phosphate [C1P] | – | – | – | competition effect on ACD11-mediated transfer rates of Me4-BODIPY C1P (ACD11 [4]): Slowing of ACD11 transfer of BODIPY-C1P; also recorded: slow the inter-bicelles transfer rates
